Test results published in PMC11881559 (Antimicrobial Agents and Chemotherapy, 2025).

Tests used:
[1] = test system: CYP3A; details: in vitro CYP reaction phenotyping, preclinical; cited from earlier work
[2] = test system: Omicron; details: in vitro, corrected by the plasma protein binding rate; cited from earlier work
[3] = Preclinical toxicology, NOAEL in dogs; assay type: in vivo; details: from dog NOAEL, at 60 kg body weight
[4] = test system: wild-type strain; details: in vitro, corrected by the plasma protein binding rate; cited from earlier work
[5] = Drug-drug interaction (DDI) study with ritonavir, plasma PK; details: 200 mg in combination with ritonavir vs 200 mg alone
[6] = Tolerability and safety assessment (AEs/ADRs, CTCAE 5.0); assay type: in vivo, human
Protocol: Safety and tolerability assessments were conducted for all participants who received at least one dose of RAY1216, either alone or in combination with ritonavir, throughout the study. The safety of all participants was evaluated on the basis of clinical symptoms, vital signs, 12-lead ECG, laboratory tests, physical examinations, and the evaluation of adverse events (AEs). All AEs were documented and graded according to the Common Terminology Criteria for Adverse Events (CTCAE, ver. 5.0). The grading scale was as follows: grade 1 (mild), grade 2 (moderate), grade 3 (severe), grade 4 (life threatening), and grade 5 (death).

[7] = rats; preclinical animal studies; cited from earlier work
[8] = Food effect, 800 mg, Fast (N = 12)
[9] = Food effect, 800 mg, Fed (N = 12)

O=C(NC1CCCC1)C(=O)[C@H](C[C@@H]1CCNC1=O)NC(=O)[C@@H]1[C@H]2CCC[C@H]2CN1C(=O)[C@@H](NC(=O)C(F)(F)F)C1CCCCC1 [RAY1216, leritrelvir]
primary metabolizing enzyme [1]: CYP3A is the primary metabolizing enzyme | antiviral 90% effective concentration (EC90) [2]: 0.2097 µg/mL | human equivalent dose [3]: ~21,000 mg/day | antiviral 90% effective concentration (EC90) [4]: 0.165 µg/mL | mean AUC0-t increased to [5]: 350.07% | mean AUC0-∞ increased to [5]: 171.00% | mean C12h concentration increased by [5]: 417.3 ng/mL | mean Cmax increased to [5]: 348.03% | participants who experienced at least one adverse event (AE) ([6]; 37 of all 88 participants (RAY1216 or placebo)): 42% | ADR, n (%) [6, 8]: 2 (16.7) n (%) | AE, n (%) [6, 8]: 3 (25.0) n (%) | ALT elevated (ADR) [6, 8]: 0 n (%) | AST elevated (ADR) [6, 8]: 0 n (%) | Anemia (ADR) [6, 8]: 0 n (%) | Bilirubin elevated (ADR) [6, 8]: 0 n (%) | Diarrhea (ADR) [6, 8]: 0 n (%) | Fatigue (ADR) [6, 8]: 0 n (%) | Grade 2 ADRs [6, 8]: 1 (8.3) n (%) | Grade ≥3 AEs [6, 8]: 0 n (%) | Hypertriglyceridemia (ADR) [6, 8]: 0 n (%) | Hyperuricemia (ADR) [6, 8]: 0 n (%) | Leukopenia (ADR) [6, 8]: 1 (8.3) n (%) | Nausea (ADR) [6, 8]: 0 n (%) | Neutrophil decreased (ADR) [6, 8]: 1 (8.3) n (%) | Palpitations (ADR) [6, 8]: 0 n (%) | Serum creatinine elevated (ADR) [6, 8]: 0 n (%) | ADR, n (%) [6, 9]: 4 (33.3) n (%) | AE, n (%) [6, 9]: 5 (41.7) n (%) | ALT elevated (ADR) [6, 9]: 0 n (%) | AST elevated (ADR) [6, 9]: 0 n (%) | Anemia (ADR) [6, 9]: 0 n (%) | Bilirubin elevated (ADR) [6, 9]: 0 n (%) | Diarrhea (ADR) [6, 9]: 0 n (%) | Fatigue (ADR) [6, 9]: 0 n (%) | Grade 2 ADRs [6, 9]: 1 (8.3) n (%) | Grade ≥3 AEs [6, 9]: 0 n (%) | Hypertriglyceridemia (ADR) [6, 9]: 1 (8.3) n (%) | Hyperuricemia (ADR) [6, 9]: 0 n (%) | Leukopenia (ADR) [6, 9]: 0 n (%) | Nausea (ADR) [6, 9]: 0 n (%) | Neutrophil decreased (ADR) [6, 9]: 0 n (%) | Palpitations (ADR) [6, 9]: 0 n (%) | Serum creatinine elevated (ADR) [6, 9]: 2 (16.7) n (%) | participants reporting at least one ADR ([6]; MAD study with or without ritonavir, 9 out of 32 participants): 28.1% | ADR, n (%) ([6]; MAD, 400 mg TID (N = 6)): 2 (33.3) n (%) | AE, n (%) ([6]; MAD, 400 mg TID (N = 6)): 2 (33.3) n (%) | ALT elevated (ADR) ([6]; MAD, 400 mg TID (N = 6)): 0 n (%) | AST elevated (ADR) ([6]; MAD, 400 mg TID (N = 6)): 0 n (%) | Anemia (ADR) ([6]; MAD, 400 mg TID (N = 6)): 0 n (%) | Bilirubin elevated (ADR) ([6]; MAD, 400 mg TID (N = 6)): 0 n (%) | Diarrhea (ADR) ([6]; MAD, 400 mg TID (N = 6)): 0 n (%) | Fatigue (ADR) ([6]; MAD, 400 mg TID (N = 6)): 0 n (%) | Grade 2 ADRs ([6]; MAD, 400 mg TID (N = 6)): 0 n (%) | Grade ≥3 AEs ([6]; MAD, 400 mg TID (N = 6)): 0 n (%) | Hypertriglyceridemia (ADR) ([6]; MAD, 400 mg TID (N = 6)): 1 (16.7) n (%) | Hyperuricemia (ADR) ([6]; MAD, 400 mg TID (N = 6)): 0 n (%) | Leukopenia (ADR) ([6]; MAD, 400 mg TID (N = 6)): 0 n (%) | Nausea (ADR) ([6]; MAD, 400 mg TID (N = 6)): 0 n (%) | Neutrophil decreased (ADR) ([6]; MAD, 400 mg TID (N = 6)): 0 n (%) | Palpitations (ADR) ([6]; MAD, 400 mg TID (N = 6)): 0 n (%) | Serum creatinine elevated (ADR) ([6]; MAD, 400 mg TID (N = 6)): 0 n (%) | participants reporting at least one ADR ([6]; MAD, 400 mg TID group, two participants): 33.3% | participants reporting at least one ADR ([6]; SAD, 200 mg cohort, two participants): 33.3% | ADR, n (%) ([6]; SAD, 400 mg (N = 6)): 2 (33.3) n (%) | AE, n (%) ([6]; SAD, 400 mg (N = 6)): 2 (33.3) n (%) | ALT elevated (ADR) ([6]; SAD, 400 mg (N = 6)): 0 n (%) | AST elevated (ADR) ([6]; SAD, 400 mg (N = 6)): 0 n (%) | Anemia (ADR) ([6]; SAD, 400 mg (N = 6)): 0 n (%) | Bilirubin elevated (ADR) ([6]; SAD, 400 mg (N = 6)): 1 (16.7) n (%) | Diarrhea (ADR) ([6]; SAD, 400 mg (N = 6)): 0 n (%) | Fatigue (ADR) ([6]; SAD, 400 mg (N = 6)): 0 n (%) | Grade 2 ADRs ([6]; SAD, 400 mg (N = 6)): 0 n (%) | Grade ≥3 AEs ([6]; SAD, 400 mg (N = 6)): 0 n (%) | Hypertriglyceridemia (ADR) ([6]; SAD, 400 mg (N = 6)): 0 n (%) | Hyperuricemia (ADR) ([6]; SAD, 400 mg (N = 6)): 0 n (%) | Leukopenia (ADR) ([6]; SAD, 400 mg (N = 6)): 0 n (%) | Nausea (ADR) ([6]; SAD, 400 mg (N = 6)): 0 n (%) | Neutrophil decreased (ADR) ([6]; SAD, 400 mg (N = 6)): 0 n (%) | Palpitations (ADR) ([6]; SAD, 400 mg (N = 6)): 0 n (%) | Serum creatinine elevated (ADR) ([6]; SAD, 400 mg (N = 6)): 1 (16.7) n (%) | participants reporting at least one ADR ([6]; SAD, 400 mg cohort, two participants): 33.3% | ADR, n (%) ([6]; SAD, 800 mg (N = 6)): 0 n (%) | AE, n (%) ([6]; SAD, 800 mg (N = 6)): 1 (16.7) n (%) | ALT elevated (ADR) ([6]; SAD, 800 mg (N = 6)): 0 n (%) | AST elevated (ADR) ([6]; SAD, 800 mg (N = 6)): 0 n (%) | Anemia (ADR) ([6]; SAD, 800 mg (N = 6)): 0 n (%) | Bilirubin elevated (ADR) ([6]; SAD, 800 mg (N = 6)): 0 n (%) | Diarrhea (ADR) ([6]; SAD, 800 mg (N = 6)): 0 n (%) | Fatigue (ADR) ([6]; SAD, 800 mg (N = 6)): 0 n (%) | Grade 2 ADRs ([6]; SAD, 800 mg (N = 6)): 0 n (%) | Grade ≥3 AEs ([6]; SAD, 800 mg (N = 6)): 0 n (%) | Hypertriglyceridemia (ADR) ([6]; SAD, 800 mg (N = 6)): 0 n (%) | Hyperuricemia (ADR) ([6]; SAD, 800 mg (N = 6)): 0 n (%) | Leukopenia (ADR) ([6]; SAD, 800 mg (N = 6)): 0 n (%) | Nausea (ADR) ([6]; SAD, 800 mg (N = 6)): 0 n (%) | Neutrophil decreased (ADR) ([6]; SAD, 800 mg (N = 6)): 0 n (%) | Palpitations (ADR) ([6]; SAD, 800 mg (N = 6)): 0 n (%) | Serum creatinine elevated (ADR) ([6]; SAD, 800 mg (N = 6)): 0 n (%) | ADR, n (%) ([6]; SAD, 1,600 mg (N = 6)): 2 (33.3) n (%) | AE, n (%) ([6]; SAD, 1,600 mg (N = 6)): 2 (33.3) n (%) | ALT elevated (ADR) ([6]; SAD, 1,600 mg (N = 6)): 0 n (%) | AST elevated (ADR) ([6]; SAD, 1,600 mg (N = 6)): 0 n (%) | Anemia (ADR) ([6]; SAD, 1,600 mg (N = 6)): 0 n (%) | Bilirubin elevated (ADR) ([6]; SAD, 1,600 mg (N = 6)): 1 (16.7) n (%) | Diarrhea (ADR) ([6]; SAD, 1,600 mg (N = 6)): 0 n (%) | Fatigue (ADR) ([6]; SAD, 1,600 mg (N = 6)): 0 n (%) | Grade 2 ADRs ([6]; SAD, 1,600 mg (N = 6)): 0 (0.0) n (%) | Grade ≥3 AEs ([6]; SAD, 1,600 mg (N = 6)): 0 n (%) | Hypertriglyceridemia (ADR) ([6]; SAD, 1,600 mg (N = 6)): 1 (16.7) n (%) | Hyperuricemia (ADR) ([6]; SAD, 1,600 mg (N = 6)): 1 (16.7) n (%) | Leukopenia (ADR) ([6]; SAD, 1,600 mg (N = 6)): 0 n (%) | Nausea (ADR) ([6]; SAD, 1,600 mg (N = 6)): 0 n (%) | Neutrophil decreased (ADR) ([6]; SAD, 1,600 mg (N = 6)): 0 n (%) | Palpitations (ADR) ([6]; SAD, 1,600 mg (N = 6)): 0 n (%) | Serum creatinine elevated (ADR) ([6]; SAD, 1,600 mg (N = 6)): 0 n (%) | participants reporting at least one ADR ([6]; SAD, 1,600 mg cohort, two participants): 33.3% | participants reporting at least one ADR ([6]; SAD, 6 out of 32 participants): 18.8% | ADR, n (%) ([6]; SAD/DDI, 200 mg (N = 6)): 2 (33.3) n (%) | AE, n (%) ([6]; SAD/DDI, 200 mg (N = 6)): 2 (33.3) n (%) | ALT elevated (ADR) ([6]; SAD/DDI, 200 mg (N = 6)): 0 n (%) | AST elevated (ADR) ([6]; SAD/DDI, 200 mg (N = 6)): 0 n (%) | Anemia (ADR) ([6]; SAD/DDI, 200 mg (N = 6)): 0 n (%) | Bilirubin elevated (ADR) ([6]; SAD/DDI, 200 mg (N = 6)): 0 n (%) | Diarrhea (ADR) ([6]; SAD/DDI, 200 mg (N = 6)): 0 n (%) | Fatigue (ADR) ([6]; SAD/DDI, 200 mg (N = 6)): 0 n (%) | Grade 2 ADRs ([6]; SAD/DDI, 200 mg (N = 6)): 1 (16.7) n (%) | Grade ≥3 AEs ([6]; SAD/DDI, 200 mg (N = 6)): 0 n (%) | Hypertriglyceridemia (ADR) ([6]; SAD/DDI, 200 mg (N = 6)): 2 (33.3) n (%) | Hyperuricemia (ADR) ([6]; SAD/DDI, 200 mg (N = 6)): 0 n (%) | Leukopenia (ADR) ([6]; SAD/DDI, 200 mg (N = 6)): 0 n (%) | Nausea (ADR) ([6]; SAD/DDI, 200 mg (N = 6)): 0 n (%) | Neutrophil decreased (ADR) ([6]; SAD/DDI, 200 mg (N = 6)): 0 n (%) | Palpitations (ADR) ([6]; SAD/DDI, 200 mg (N = 6)): 0 n (%) | Serum creatinine elevated (ADR) ([6]; SAD/DDI, 200 mg (N = 6)): 0 n (%) | grade 3 or above AEs, withdrawal due to AEs, SAEs ([6]; all cohorts): No grade 3 or above AEs, participant withdrawal due to AEs, or SAEs occurred | participants reporting at least one ADR ([6]; food-effect study, RAY1216 alone, 5 out of 12 participants): 41.7% | participants reporting at least one ADR ([6]; food-effect study, RAY1216 alone, after meals, 4 out of 12): 33.3% | participants reporting at least one ADR ([6]; food-effect study, RAY1216 alone, fasting, 2 out of 12): 16.7% | no-observed-adverse-effect level (NOAEL) [7]: 900 mg/kg/day
